Results from patent US20240383874A1, “BENZENE RING DERIVATIVE, AND COMPOSITION AND PHARMACEUTICAL USE THEREOF” (Xizang Haisco Pharmaceutical Co., Ltd., priority 2020, published 2024).
Where a name gives a salt, the structure may show the parent alone. Read-outs that look alike come from different tables or passages of the source.

System: 22RV1 cells
Assay: Experiment 2 on inhibiting 22RV1 cell proliferation (7 days, CellTiter-Glo)
Assay type: cell-based
Details: 1% css-FBS phenol red-free medium, incubated with compound 7 days, read-out: IC50 values on proliferation inhibition of 22RV1 cells
Experimental: Prostate cancer cells 22RV1 were purchased from ATCC, the cell medium was RPMI 1640+10% FBS, and the cells were cultured in an incubator at 37° C. under 5% CO2. On day 1, the cells in an exponential phase were collected. With a 1% css-FBS phenol red-free medium, the cell suspension was adjusted to a corresponding concentration, plated at 2000 cells/well and incubated overnight. On day 2, compounds at different concentrations were added, and the plate was placed in the incubator and incubated for further 7 days. After the incubation was completed, according to operation instructions for a CellTiter-Glo kit (Promega, G7573), 50 μL of CTG solution, which was already pre-melted and equilibrated to room temperature, was added to each well, and the mixtures were uniformly mixed for 2 min using a microplate shaker. The plate was placed at room temperature for 10 min, and then fluorescence signal values were measured using a microplate reader (PHERAstar FSX). The results were processed according to formula (2), the survival rate of the compound at different concentrations was calculated, and the IC50 value of the compound with a survival rate of 50% was calculated using origin9.2 software with DoseResp function, wherein RLU compound was the readout of the treated group, and RLU control was the average value of the DMSO vehicle control group.

Row | Compound | IC50 [nM] | IC50 (Homo sapiens, 22Rv1, 168 h) [nM]
1 | CC(C)(c1ccc(OCc2ccnc(N3CCN(CC4CCN(C5CCN(c6ccc7c(c6)C(=O)N(C6CCC(=O)NC6=O)C7=O)CC5)CC4)CC3)n2)cc1)c1cc(Cl)c(OCCCl)c(C#N)c1 (stereo not shown) [Compound 11, 3-chloro-2-(2-chloroethoxy)-5-(2-(4-((2-(4-((1′-(2-(2,6-dioxopiperidin-3-yl)-1,3-dioxoisoindolin-5-yl)-[1,4′-bipiperidin]-4-yl)methyl)piperazin-1-yl)pyrimidin-4-yl)methoxy)phenyl)propan-2-yl)benzonitrile] | 356 | –
2 | CC(C)(c1ccc(OCc2ccnc(N3CCN(CC4CCN(C5CCN(c6cccc7c6C(=O)N(C6CCC(=O)NC6=O)C7=O)CC5)CC4)CC3)n2)cc1)c1cc(Cl)c(OCCCl)c(C#N)c1 (stereo not shown) [Compound 12, 3-chloro-2-(2-chloroethoxy)-5-(2-(4-((2-(4-((1′-(2-(2,6-dioxopiperidin-3-yl)-1,3-dioxoisoindolin-4-yl)-[1,4′-bipiperidin]-4-yl)methyl)piperazin-1-yl)pyrimidin-4-yl)methoxy)phenyl)propan-2-yl)benzonitrile] | 804 | –
3 | CC(C)(c1ccc(OCc2ccnc(N3CCN(CC4CCN(CC5CCN(c6ccc7c(c6)C(=O)N(C6CCC(=O)NC6=O)C7=O)CC5)CC4)CC3)n2)cc1)c1cc(Cl)c(OCCCl)c(C#N)c1 (stereo not shown) [Compound 13, 3-chloro-2-(2-chloroethoxy)-5-(2-(4-((2-(4-((1-((1-(2-(2,6-dioxopiperidin-3-yl)-1,3-dioxoisoindolin-5-yl)piperidin-4-yl)methyl)piperidin-4-yl)methyl)piperazin-1-yl)pyrimidin-4-yl)methoxy)phenyl)propan-2-yl)benzonitrile] | 721 | –
4 | CC(C)(c1ccc(OCc2ccnc(N3CCN(CC4CCN(CC5CCN(c6cccc7c6C(=O)N(C6CCC(=O)NC6=O)C7=O)CC5)CC4)CC3)n2)cc1)c1cc(Cl)c(OCCCl)c(C#N)c1 (stereo not shown) [Compound 14, 3-chloro-2-(2-chloroethoxy)-5-(2-(4-((2-(4-((1-((1-(2-(2,6-dioxopiperidin-3-yl)-1,3-dioxoisoindolin-4-yl)piperidin-4-yl)methyl)piperidin-4-yl)methyl)piperazin-1-yl)pyrimidin-4-yl)methoxy)phenyl)propan-2-yl)benzonitrile] | 628 | –
5 | CC(C)(c1ccc(OCc2ccnc(N3C[C@@H]4CN(C5CCN(CC6CCN(c7ccc8c(c7)C(=O)N(C7CCC(=O)NC7=O)C8=O)CC6)CC5)C[C@@H]4C3)n2)cc1)c1cc(Cl)c(OCCCl)c(C#N)c1 (stereo partly drawn) [Compound 16, 3-chloro-2-(2-chloroethoxy)-5-(2-(4-((2-((3aR,6aS)-5-(1-((1-(2-(2,6-dioxopiperidin-3-yl)-1,3-dioxoisoindolin-5-yl)piperidin-4-yl)methyl)piperidin-4-yl)hexahydropyrrolo[3,4-c]pyrrol-2(1H)-yl)pyrimidin-4-yl)methoxy)phenyl)propan-2-yl)benzonitrile] | 802 | –
6 | CC(C)(c1ccc(OCc2ccnc(N3C[C@@H]4CN(C5CCN(C6CN(c7ccc8c(c7)C(=O)N(C7CCC(=O)NC7=O)C8=O)C6)CC5)C[C@@H]4C3)n2)cc1)c1cc(Cl)c(OCCCl)c(C#N)c1 (stereo partly drawn) [Compound 17, 3-chloro-2-(2-chloroethoxy)-5-(2-(4-((2-((3aR,6aS)-5-(1-(1-(2-(2,6-dioxopiperidin-3-yl)-1,3-dioxoisoindolin-5-yl)azetidin-3-yl)piperidin-4-yl)hexahydropyrrolo[3,4-c]pyrrol-2(1H)-yl)pyrimidin-4-yl)methoxy)phenyl)propan-2-yl)benzonitrile] | 1020 | –
7 | CC(C)(c1ccc(OCc2ccnc(N3CCC4(CC3)CN(C3CCN(C5CN(c6ccc7c(c6)C(=O)N(C6CCC(=O)NC6=O)C7=O)C5)CC3)C4)n2)cc1)c1cc(Cl)c(OCCCl)c(C#N)c1 (stereo not shown) [Compound 20, 3-chloro-2-(2-chloroethoxy)-5-(2-(4-((2-(2-(1-(1-(2-(2,6-dioxopiperidin-3-yl)-1,3-dioxoisoindolin-5-yl)azetidin-3-yl)piperidin-4-yl)-2,7-diazaspiro[3.5]nonan-7-yl)pyrimidin-4-yl)methoxy)phenyl)propan-2-yl)benzonitrile] | 954 | –
8 | CC(C)(c1ccc(OCc2ccnc(N3CCC4(CC3)CN(C3CCN(CC5CCN(c6ccc7c(c6)C(=O)N(C6CCC(=O)NC6=O)C7=O)CC5)CC3)C4)n2)cc1)c1cc(Cl)c(OCCCl)c(C#N)c1 (stereo not shown) [Compound 21, 3-chloro-2-(2-chloroethoxy)-5-(2-(4-((2-(2-(1-((1-(2-(2,6-dioxopiperidin-3-yl)-1,3-dioxoisoindolin-5-yl)piperidin-4-yl)methyl)piperidin-4-yl)-2,7-diazaspiro[3.5]nonan-7-yl)pyrimidin-4-yl)methoxy)phenyl)propan-2-yl)benzonitrile] | 507 | –
9 | CC(C)(c1ccc(OCc2ccnc(N3CC4(CCN(C5CCN(C6CN(c7ccc8c(c7)C(=O)N(C7CCC(=O)NC7=O)C8=O)C6)CC5)CC4)C3)n2)cc1)c1cc(Cl)c(OCCCl)c(C#N)c1 (stereo not shown) [Compound 23, 3-chloro-2-(2-chloroethoxy)-5-(2-(4-((2-(7-(1-(1-(2-(2,6-dioxopiperidin-3-yl)-1,3-dioxoisoindolin-5-yl)azetidin-3-yl)piperidin-4-yl)-2,7-diazaspiro[3.5]nonan-2-yl)pyrimidin-4-yl)methoxy)phenyl)propan-2-yl)benzonitrile] | 500 | –
10 | CC(C)(c1ccc(OCc2ccnc(N3CC4(CCN(C5CCN(CC6CCN(c7ccc8c(c7)C(=O)N(C7CCC(=O)NC7=O)C8=O)CC6)CC5)CC4)C3)n2)cc1)c1cc(Cl)c(OCCCl)c(C#N)c1 (stereo not shown) [Compound 24, 3-chloro-2-(2-chloroethoxy)-5-(2-(4-((2-(7-(1-((1-(2-(2,6-dioxopiperidin-3-yl)-1,3-dioxoisoindolin-5-yl)piperidin-4-yl)methyl)piperidin-4-yl)-2,7-diazaspiro[3.5]nonan-2-yl)pyrimidin-4-yl)methoxy)phenyl)propan-2-yl)benzonitrile] | 569 | –
11 | CC(C)(c1ccc(OCc2ccnc(N3CC4(CCN(C5CCN(CC6CCN(c7cccc8c7C(=O)N(C7CCC(=O)NC7=O)C8=O)CC6)CC5)CC4)C3)n2)cc1)c1cc(Cl)c(OCCCl)c(C#N)c1 (stereo not shown) [Compound 25, 3-chloro-2-(2-chloroethoxy)-5-(2-(4-((2-(7-(1-((1-(2-(2,6-dioxopiperidin-3-yl)-1,3-dioxoisoindolin-4-yl)piperidin-4-yl)methyl)piperidin-4-yl)-2,7-diazaspiro[3.5]nonan-2-yl)pyrimidin-4-yl)methoxy)phenyl)propan-2-yl)benzonitrile] | 542 | –
12 | Cn1c(=O)n(C2CCC(=O)NC2=O)c2cccc(CN3CC(N4CCC(N5CCC6(CC5)CN(c5nccc(COc7ccc(C(C)(C)c8cc(Cl)c(OCCCl)c(C#N)c8)cc7)n5)C6)CC4)C3)c21 (stereo not shown) [Compound 26, 3-chloro-2-(2-chloroethoxy)-5-(2-(4-((2-(7-(1-(1-((1-(2,6-dioxopiperidin-3-yl)-3-methyl-2-oxo-2,3-dihydro-1H-benzo[d]imidazol-4-yl)methyl)azetidin-3-yl)piperidin-4-yl)-2,7-diazaspiro[3.5]nonan-2-yl)pyrimidin-4-yl)methoxy)phenyl)propan-2-yl)benzonitrile] | 548 | –
13 | CC(C)(c1ccc(OCc2ccnc(N3CCC4(CC3)CCN(C3CCN(CC5CCN(c6ccc7c(c6)C(=O)N(C6CCC(=O)NC6=O)C7=O)CC5)CC3)CC4)n2)cc1)c1cc(Cl)c(OCCCl)c(C#N)c1 (stereo not shown) [Compound 27, 3-chloro-2-(2-chloroethoxy)-5-(2-(4-((2-(9-(1-((1-(2-(2,6-dioxopiperidin-3-yl)-1,3-dioxoisoindolin-5-yl)piperidin-4-yl)methyl)piperidin-4-yl)-3,9-diazaspiro[5.5]undecan-3-yl)pyrimidin-4-yl)methoxy)phenyl)propan-2-yl)benzonitrile] | 663 | –
14 | CC(C)(c1ccc(OCc2ccnc(N3CCC4(CC3)CCN(C3CCN(CC5CCN(c6cccc7c6C(=O)N(C6CCC(=O)NC6=O)C7=O)CC5)CC3)CC4)n2)cc1)c1cc(Cl)c(OCCCl)c(C#N)c1 (stereo not shown) [Compound 28, 3-chloro-2-(2-chloroethoxy)-5-(2-(4-((2-(9-(1-((1-(2-(2,6-dioxopiperidin-3-yl)-1,3-dioxoisoindolin-4-yl)piperidin-4-yl)methyl)piperidin-4-yl)-3,9-diazaspiro[5.5]undecan-3-yl)pyrimidin-4-yl)methoxy)phenyl)propan-2-yl)benzonitrile] | 634 | –
15 | Cn1c(=O)n(C2CCC(=O)NC2=O)c2cccc(CN3CC(N4CCC5(CCN(c6nccc(COc7ccc(C(C)(C)c8cc(Cl)c(OCCCl)c(C#N)c8)cc7)n6)CC5)CC4)C3)c21 (stereo not shown) [Compound 29 trifluoroacetate, 3-chloro-2-(2-chloroethoxy)-5-(2-(4-((2-(9-(1-((1-(2,6-dioxopiperidin-3-yl)-3-methyl-2-oxo-2,3-dihydro-1H-benzo[d]imidazol-4-yl)methyl)azetidin-3-yl)-3,9-diazaspiro[5.5]undecan-3-yl)pyrimidin-4-yl)methoxy)phenyl)propan-2-yl)benzonitrile] | – | 788
16 | CC(C)(c1ccc(OCc2ccnc(N3CCC4(CC3)CCN(C3CCN(C5CN(c6ccc7c(c6)C(=O)N(C6CCC(=O)NC6=O)C7=O)C5)CC3)CC4)n2)cc1)c1cc(Cl)c(OCCCl)c(C#N)c1 (stereo not shown) [Compound 30 trifluoroacetate, 3-chloro-2-(2-chloroethoxy)-5-(2-(4-((2-(9-(1-(1-(2-(2,6-dioxopiperidin-3-yl)-1,3-dioxoisoindolin-5-yl)azetidin-3-yl)piperidin-4-yl)-3,9-diazaspiro[5.5]undecan-3-yl)pyrimidin-4-yl)methoxy)phenyl)propan-2-yl)benzonitrile] | – | 834
